Results taken from ChEMBL document CHEMBL4118193, “1,2,3,4,6-Penta-O-galloyl-β-d-glucose suppresses colon cancer through induction of tumor suppressor” (Bioorg Med Chem Lett, 2018).
Activity calls are given as the source filed them. The rule behind the calls is not given here.

Key:
HT-29 [1] = experiment: Induction of apoptosis in human HT-29 cells assessed as DNA fragmentation at 1 to 10 uM after 48 hrs by ELISA; type: functional, cell-based
HCT-116 [2] = experiment: Induction of apoptosis in human HCT116 cells assessed as Bcl-2 protein level at 1 uM after 48 hrs by Western blot method relative to beta-actin; type: functional
HT-29 [3] = experiment: Cell cycle arrest in human HT-29 cells assessed as accumulation at G2/M phase at 2.5 uM after 48 hrs (reference value: 14.7%); type: functional
HCT-116 [4] = experiment: Cell cycle arrest in human HCT116 cells assessed as accumulation at G0/G1 phase at 1 uM after 48 hrs (reference value: 38.5%); type: functional
HT-29 [5] = experiment: Induction of apoptosis in human HT-29 cells assessed as caspase-3 protein level at 10 uM after 48 hrs by Western blot method relative to beta-actin; type: functional
HT-29 [6] = experiment: Cell cycle arrest in human HT-29 cells assessed as accumulation at G0/G1 phase at 1 uM after 48 hrs (reference value: 53.9%); type: functional
HCT-116 [7] = experiment: Induction of apoptosis in human HCT116 cells assessed as in p53 protein level at 5 uM after 48 hrs by Western blot method relative to beta-actin; type: functional
HCT-116 [8] = experiment: Induction of apoptosis in human HCT116 cells assessed as increase in caspase-3/7 activity at 1 to 10 uM measured after 48 hrs by Caspase-Glo 3/7 assay; type: functional, cell-based
HCT-116 [9] = experiment: Induction of apoptosis in human HCT116 cells assessed as CDK2 protein level at 2.5 uM after 48 hrs by Western blot method relative to beta-actin; type: functional
HCT-116 [10] = experiment: Induction of apoptosis in human HCT116 cells assessed as p21 protein level at 1 uM after 48 hrs by Western blot method relative to beta-actin; type: functional
HCT-116 [11] = experiment: Induction of apoptosis in human HCT116 cells assessed as in p53 protein level at 10 uM after 48 hrs by Western blot method relative to beta-actin; type: functional
HT-29 [12] = experiment: Induction of apoptosis in human HT-29 cells assessed as cleaved caspase-3 protein level at 1 uM after 48 hrs by Western blot method relative to caspase-3; type: functional
HCT-116 [13] = experiment: Cytotoxicity against human HCT116 cells at 10 uM after 48 hrs by CytoTox-96 non-radioactive assay; type: functional, cell-based
HT-29 [14] = experiment: Induction of apoptosis in human HT-29 cells assessed as cleaved caspase-3 protein level at 10 uM after 48 hrs by Western blot method relative to caspase-3; type: functional
HCT-116 [15] = experiment: Induction of apoptosis in human HCT116 cells assessed as Bcl-2 protein level at 10 uM after 48 hrs by Western blot method relative to beta-actin; type: functional
HCT-116 [16] = experiment: Cell cycle arrest in human HCT116 cells assessed as accumulation at G2/M phase at 10 uM after 48 hrs (reference value: 21.5%); type: functional
HT-29 [17] = experiment: Induction of apoptosis in human HT-29 cells assessed as CDK2 protein level at 1 uM after 48 hrs by Western blot method relative to beta-actin; type: functional
HCT-116 [18] = experiment: Cell cycle arrest in human HCT116 cells assessed as accumulation at G2/M phase at 5 uM after 48 hrs (reference value: 21.5%); type: functional
HCT-116 [19] = experiment: Cytotoxicity against human HCT116 cells at 1 to 10 uM after 48 hrs by CytoTox-96 non-radioactive assay; type: functional, cell-based
HCT-116 [20] = experiment: Induction of apoptosis in human HCT116 cells assessed as CDK2 protein level at 10 uM after 48 hrs by Western blot method relative to beta-actin; type: functional
HCT-116 [21] = experiment: Induction of apoptosis in human HCT116 cells assessed as necrotic cells at 1 uM after 48 hrs by Annexin-V and dead cell assay (reference value: 0.10%); type: functional
HCT-116 [22] = experiment: Induction of apoptosis in human HCT116 cells assessed as cleaved caspase-3 protein level at 10 uM after 48 hrs by Western blot method relative to caspase-3; type: functional
HCT-116 [23] = experiment: Induction of apoptosis in human HCT116 cells assessed as p21 protein level at 10 uM after 48 hrs by Western blot method relative to beta-actin; type: functional
HT-29 [24] = experiment: Induction of apoptosis in human HT-29 cells after 48 hrs by Annexin-V and dead cell assay; type: functional, cell-based
HCT-116 [25] = experiment: Induction of apoptosis in human HCT116 cells assessed as late apoptotic cells at 2.5 uM after 48 hrs by Annexin-V and dead cell assay (reference value: 1.45%); type: functional
HCT-116 [26] = experiment: Induction of apoptosis in human HCT116 cells assessed as cyclin E protein level at 1 uM after 48 hrs by Western blot method relative to beta-actin; type: functional
HCT-116 [27] = experiment: Induction of apoptosis in human HCT116 cells assessed as in p53 protein level at 2.5 uM after 48 hrs by Western blot method relative to beta-actin; type: functional
HCT-116 [28] = experiment: Induction of apoptosis in human HCT116 cells after 48 hrs by Annexin-V and dead cell assay; type: functional, cell-based
HCT-116 [29] = experiment: Cell cycle arrest in human HCT116 cells assessed as accumulation at G0/G1 phase at 10 uM after 48 hrs (reference value: 38.5%); type: functional
HT-29 [30] = experiment: Cell cycle arrest in human HT-29 cells assessed as accumulation at G0/G1 phase at 2.5 uM after 48 hrs (reference value: 53.9%); type: functional
HT-29 [31] = experiment: Induction of apoptosis in human HT-29 cells assessed as cyclin E protein level at 5 uM after 48 hrs by Western blot method relative to beta-actin; type: functional
HCT-116 [32] = experiment: Antiproliferative activity against human HCT116 cells at 1 to 10 uM after 48 hrs by CytoTox-96 non-radioactive assay; type: functional, cell-based
HCT-116 [33] = experiment: Induction of apoptosis in human HCT116 cells assessed as p21 protein level at 2.5 uM after 48 hrs by Western blot method relative to beta-actin; type: functional
HT-29 [34] = experiment: Induction of apoptosis in human HT-29 cells assessed as CDK2 protein level at 5 uM after 48 hrs by Western blot method relative to beta-actin; type: functional
HT-29 [35] = experiment: Cell cycle arrest in human HT-29 cells assessed as accumulation at S phase at 10 uM after 48 hrs (reference value: 9.7%); type: functional
HT-29 [36] = experiment: Cell cycle arrest in human HT-29 cells assessed as accumulation at subG1 phase after 48 hrs; type: functional, cell-based
HT-29 [37] = experiment: Induction of apoptosis in human HT-29 cells assessed as cyclin E protein level at 1 uM after 48 hrs by Western blot method relative to beta-actin; type: functional
HCT-116 [38] = experiment: Induction of apoptosis in human HCT116 cells assessed as caspase-3 protein level at 1 uM after 48 hrs by Western blot method relative to beta-actin; type: functional
HCT-116 [39] = experiment: Induction of apoptosis in human HCT116 cells assessed as Bcl-2 protein level at 5 uM after 48 hrs by Western blot method relative to beta-actin; type: functional
HCT-116 [40] = experiment: Induction of apoptosis in human HCT116 cells assessed as late apoptotic cells at 10 uM after 48 hrs by Annexin-V and dead cell assay (reference value: 1.45%); type: functional
HCT-116 [41] = experiment: Cell cycle arrest in human HCT116 cells assessed as accumulation at G0/G1 phase at 2.5 uM after 48 hrs (reference value: 38.5%); type: functional
HT-29 [42] = experiment: Induction of apoptosis in human HT-29 cells assessed as CDK2 protein level at 2.5 uM after 48 hrs by Western blot method relative to beta-actin; type: functional

**Q.** Which Activity (HT-29 [1]) does the source give for `O=C(OC[C@H]1O[C@@H](OC(=O)c2cc(O)c(O)c(O)c2)[C@H](OC(=O)c2cc(O)c(O)c(O)c2)[C@@H](OC(=O)c2cc(O)c(O)c(O)c2)[C@@H]1OC(=O)c1cc(O)c(O)c(O)c1)c1cc(O)c(O)c(O)c1` [PENTAGALLOYL GLUCOSE] here?
**A.** The Activity was “Active”.

**Q.** And the “fold change (FC)” value (HCT-116 [2])?
**A.** The value was 1.3.

**Q.** What about the Activity (HT-29 [3]) of the same compound?
**A.** Its Activity is 20.8%.

**Q.** And the Activity (HCT-116 [4])?
**A.** Its Activity is 37.5%.

**Q.** What about the “fold change (FC)” value (HT-29 [5]) of the same compound?
**A.** The value was 5.8.

**Q.** And the Activity (HT-29 [6])?
**A.** The Activity was 51.3%.

**Q.** What about the “fold change (FC)” value (HCT-116 [7]) of the same compound?
**A.** Its value is 4.9.

**Q.** What about the Activity (HCT-116 [8]) of the same compound?
**A.** The Activity was “Active”.

**Q.** What about the “fold change (FC)” value (HCT-116 [9]) of the same compound?
**A.** Its value is 0.8.

**Q.** And the “fold change (FC)” value (HCT-116 [10])?
**A.** The value was 1.3.

**Q.** And the “fold change (FC)” value (HCT-116 [11])?
**A.** The value was 8.1.

**Q.** And the “fold change (FC)” value (HT-29 [12])?
**A.** Its value is 3.

**Q.** And the Activity (HCT-116 [13])?
**A.** Its Activity is “Active”.

**Q.** What about the “fold change (FC)” value (HT-29 [14]) of the same compound?
**A.** The value was 5.7.

**Q.** What about the “fold change (FC)” value (HCT-116 [15]) of the same compound?
**A.** Its value is 0.7.

**Q.** And the Activity (HCT-116 [16])?
**A.** Its Activity is 18.1%.

**Q.** And the “fold change (FC)” value (HT-29 [17])?
**A.** The value was 0.9.

**Q.** What about the Activity (HCT-116 [18]) of the same compound?
**A.** Its Activity is 20.9%.

**Q.** And the Activity (HCT-116 [19])?
**A.** Its Activity is “Active”.

**Q.** And the “fold change (FC)” value (HCT-116 [20])?
**A.** The value was 0.3.

**Q.** What about the Activity (HCT-116 [21]) of the same compound?
**A.** Its Activity is 0.1%.

**Q.** What about the “fold change (FC)” value (HCT-116 [22]) of the same compound?
**A.** The value was 1.7.

**Q.** What about the “fold change (FC)” value (HCT-116 [23]) of the same compound?
**A.** Its value is 1.6.

**Q.** What about the Activity (HT-29 [24]) of the same compound?
**A.** The Activity was “Dose-dependent effect”.

**Q.** And the Activity (HCT-116 [25])?
**A.** The Activity was 1%.

**Q.** What about the “fold change (FC)” value (HCT-116 [26]) of the same compound?
**A.** The value was 1.8.

**Q.** What about the “fold change (FC)” value (HCT-116 [27]) of the same compound?
**A.** Its value is 2.5.

**Q.** And the Activity (HCT-116 [28])?
**A.** The Activity was “Dose-dependent effect”.

**Q.** And the Activity (HCT-116 [29])?
**A.** Its Activity is 32.2%.

**Q.** And the Activity (HT-29 [30])?
**A.** The Activity was 47.2%.

**Q.** And the “fold change (FC)” value (HT-29 [31])?
**A.** The value was 0.8.

**Q.** What about the Activity (HCT-116 [32]) of the same compound?
**A.** Its Activity is “Active”.

**Q.** And the “fold change (FC)” value (HCT-116 [33])?
**A.** The value was 1.4.

**Q.** What about the “fold change (FC)” value (HT-29 [34]) of the same compound?
**A.** The value was 0.4.

**Q.** And the Activity (HT-29 [35])?
**A.** Its Activity is 13.9%.

**Q.** And the Activity (HT-29 [36])?
**A.** Its Activity is “Dose-dependent effect”.

**Q.** What about the “fold change (FC)” value (HT-29 [37]) of the same compound?
**A.** The value was 1.2.

**Q.** And the “fold change (FC)” value (HCT-116 [38])?
**A.** The value was 29.6.

**Q.** What about the “fold change (FC)” value (HCT-116 [39]) of the same compound?
**A.** The value was 1.2.

**Q.** And the Activity (HCT-116 [40])?
**A.** Its Activity is 6.1%.

**Q.** What about the Activity (HCT-116 [41]) of the same compound?
**A.** The Activity was 34%.

**Q.** And the “fold change (FC)” value (HT-29 [42])?
**A.** Its value is 0.9.
